In patent publication US4368203A, “Antibiotics and derivatives thereof having β-lactamase inhibitory activity and production thereof” (priority 1977, dated 1983):
In brackets after ≈: the same amount, converted by molar mass. Like-named read-outs stand apart in the source and are kept apart here.

Key:
[1] = tested on: Staphylococcus aureus Bx-1633; assay: MIC, broth dilution method; settings: BX1633, 20 h, read-out: Minimum inhibitory concentration
[2] = tested on: Enterobacter aerogenes E-19; assay: MIC, broth dilution method; settings: Klebsiella aerogenes, E19, 20 h, read-out: Minimum inhibitory concentration
[3] = tested on: Proteus mirabilis P-6; assay: MIC, broth dilution method; settings: P6, 20 h, read-out: Minimum inhibitory concentration
[4] = tested on: Citrobacter freundii E-9; assay: MIC, broth dilution method; assay type: cell-based; settings: for MIC: Citrobacter freundii, read-out: Minimum inhibitory concentration
Experimental: (§1) Sodium salt of the antibiotic PS-7 was dissolved and diluted with the BRAIN HEART INFUSION BROTH "Eiken" at a concentration between 5 μg/ml and 100 μg/ml. The solution was further diluted with the same medium to obtain a series of geometric concentrations. To the serial dilutions were added the seed cultures prepared by shaking culture of various test microorganisms shown in Tab. 5 in the BRAIN HEART INFUSION GROTH at 28° C. for 18 hours, the final cell count being about 1×10^5 /ml. […] The lowest concentration at which no cell growth was observed was the minimum inhibitory concentration of the antibiotic PS-7 on the test microorganism. […] . The minimum inhibitory concentrations on test strains were determined in the same manner as mentioned above. […] For the comparison, the results on the known antibiotics Cephazolin and Cefoxitin are also given in the same table.

[5] = tested on: Diplococcus pneumoniae Type III; assay: MIC, broth dilution method; assay type: cell-based; settings: Streptococcus pneumoniae, read-out: Minimum inhibitory concentration
Experimental: as §1

[6] = tested on: Staphylococcus aureus FDA 209P; assay: MIC, broth dilution method; assay type: cell-based; settings: FDA209P, read-out: Minimum inhibitory concentration
Experimental: as §1

[7] = tested on: Alcaligenes faecalis B-326; assay: MIC, broth dilution method; assay type: cell-based; settings: for MIC: Alcaligenes faecalis, read-out: Minimum inhibitory concentration
Experimental: as §1

[8] = tested on: Serratia marcescens S-18; assay: MIC, broth dilution method; settings: S18, 20 h, read-out: Minimum inhibitory concentration
[9] = tested on: Staphylococcus aureus FDA 209P; assay: MIC, broth dilution method; assay type: cell-based; settings: for MIC: Staphylococcus aureus, FDA209P, Table 7, no unit in the head, read-out: Minimum inhibitory concentration
[10] = tested on: Proteus rettgeri P-7; assay: MIC, broth dilution method; settings: Providencia rettgeri, P7, 20 h, read-out: Minimum inhibitory concentration
[11] = tested on: Enterobacter sp. E-8; assay: MIC, broth dilution method; settings: SP.E8, 20 h, read-out: Minimum inhibitory concentration
[12] = tested on: Klebsiella pneumoniae K-2; assay: MIC, broth dilution method; settings: for MIC: Klebsiella pneumoniae, K2, 20 h, read-out: Minimum inhibitory concentration
[13] = tested on: Providencia sp. P-8; assay: MIC, broth dilution method; settings: SP.P8, 20 h, read-out: Minimum inhibitory concentration
[14] = tested on: Staphylococcus aureus Rassell; assay: MIC, broth dilution method; settings: 20 h, read-out: Minimum inhibitory concentration
[15] = tested on: Bacillus subtilis ATCC 6633; assay: MIC, broth dilution method; settings: ATCC6633, 20 h, read-out: Minimum inhibitory concentration
[16] = tested on: Enterobacter cloacae E-16; assay: MIC, broth dilution method; assay type: cell-based; settings: for MIC: Enterobacter cloacae, read-out: Minimum inhibitory concentration
Experimental: Sodium salt of the antibiotic PS-7 was dissolved and diluted with the BRAIN HEART INFUSION BROTH "Eiken" at a concentration between 5 μg/ml and 100 μg/ml. The solution was further diluted with the same medium to obtain a series of geometric concentrations. To the serial dilutions were added the seed cultures prepared by shaking culture of various test microorganisms shown in Tab. 5 in the BRAIN HEART INFUSION GROTH at 28° C. for 18 hours, the final cell count being about 1×10^5 /ml. […] The lowest concentration at which no cell growth was observed was the minimum inhibitory concentration of the antibiotic PS-7 on the test microorganism. […] The minimum inhibitory concentrations on test strains were determined in the same manner as mentioned above.

[17] = tested on: Proteus vulgaris P-5; assay: MIC, broth dilution method; settings: for MIC: Proteus vulgaris, P5, 20 h, read-out: Minimum inhibitory concentration
[18] = tested on: Proteus sp. P-22; assay: MIC, broth dilution method; settings: 20 h, read-out: Minimum inhibitory concentration
[19] = tested on: Streptococcus pyogenes NY-5; assay: MIC, broth dilution method; settings: for MIC: Streptococcus pyogenes, NY5, 20 h, read-out: Minimum inhibitory concentration
[20] = tested on: Proteus vulgaris P-5; assay: Potentiating and synergistic effect, pulp disc inhibition zone on agar plate; assay type: cell-based
Experimental: (§2) 10 ml of 2.5 folds diluted nutrient agar (pH 7.0) containing 50 μg/ml of penicillin G or cephaloridine was seeded with the β-lactamase producing and β-lactam-resistant microorganisms and poured in a 9 cm Petri dish to provide the bio-assay agar plate. […] A control assay plate was similarly prepared without penicillin G or cephaloridine. As reference antibiotics, 10,000 μg/ml of penicillin G or 20 μl of cephaloridine were disc-assayed under the same conditions.
(§3) Cepholoridine was added to a 2.5-times diluted nutrient agar, pH 7.0 and the medium was inoculated with a β-lactam-producing strain that produceds β-lactamase. Ten ml of the medium was spread and solidified in a petri dish of 9 cm in diameter to prepare an assay plate. […] Each 20 μl of the solution and its 2- and 4-times diluted solutions was soaked in a pulp disc of 8 mm in diameter. To the surface of the above nutrient agar was placed the pulp disc and the size of the growth inhibitory zone around the disc was examined after incubation at 35° C. for 18 hours. […] In addition, for the comparison, a similar experiment was also performed with a pulp disk soaked with 20 μl of 10,000 μg/ml Penicillin G or Cepholoridine solution in place of the antibiotic PS-7.

[21] = tested on: Diplococcus pneumoniae Type III; assay: MIC, broth dilution method; assay type: cell-based
[22] = tested on: β-lactamase-producing, β-lactam-resistant bacteria; assay: Increase of the antibiotic activity of other antibiotics (summary in words); assay type: cell-based; settings: β-lactamase-producing bacteria such as Proteus vulgaris, Serratia marcescens
Experimental: as §2, §3

[23] = tested on: Citrobacter freundii E-9; assay: Potentiating and synergistic effect, pulp disc inhibition zone on agar plate; assay type: cell-based
Experimental: (§4) 10 ml of 2.5 folds diluted nutrient agar (pH 7.0) containing 50 μg/ml of penicillin G or cephaloridine was seeded with the β-lactamase producing and β-lactam-resistant microorganisms and poured in a 9 cm Petri dish to provide the bio-assay agar plate. On this assay plate, 8 mm of pulp discs each containing 20 μl of antibiotic PS-6 solution at the concentration of 240 μg/ml were placed and incubated at 35° C. for 18 hours before reading the inhibition zones. A control assay plate was similarly prepared without penicillin G or cephaloridine. As reference antibiotics, 10,000 μg/ml of penicillin G or 20 μl of cephaloridine were disc-assayed under the same conditions.

[24] = tested on: Serratia marcescens S-18; assay: as above; assay type: cell-based
Experimental: as §4

[25] = E9, Table 7, no unit in the head, lactamase-producing strain
[26] = B326, Table 7, no unit in the head
[27] = E16, Table 7, no unit in the head, lactamase-producing strain
[28] = Table 6, agar containing 50 μg/ml of cephaloridine, disc 20 μl, PS-6 240 μg/ml, reference antibiotics 10,000 μg/ml
[29] = Table 6, agar containing 50 μg/ml of penicillin G, disc 20 μl, PS-6 240 μg/ml, reference antibiotics 10,000 μg/ml
[30] = Table 9, lactamase producing organism
[31] = Table 9, 10% of horse blood in the medium

Cc1nnc(SCC2=C(C(=O)O)N3C(=O)[C@@H](NC(=O)Cn4cnnn4)[C@H]3SC2)s1 [Cefazorin]
MIC [1]: 0.5 mg/L (≈ 1.1 µM) | MIC [2]: > 100 mg/L | MIC [3]: 6.25 mg/L (≈ 13.8 µM) | MIC ([4]; E9, 20 h): > 100 mg/L | MIC [4, 25]: > 100 mg/L | MIC ([5]; 20 h): 0.125 mg/L (≈ 0.275 µM) | MIC [5]: 0.125 mg/L (≈ 0.275 µM) | MIC ([6]; Table 5, 35° C. 20 hours): 0.25 mg/L (≈ 0.55 µM) | MIC ([7]; B326, Table 5, 35° C. 20 hours): 6.25 mg/L (≈ 13.8 µM) | MIC [7, 26]: 6.25 mg/L (≈ 13.8 µM) | MIC [8]: > 100 mg/L | MIC [9]: 0.25 mg/L (≈ 0.55 µM) | MIC [10]: 25 mg/L (≈ 55 µM) | MIC [11]: 3.13 mg/L (≈ 6.89 µM) | MIC [12]: 6.25 mg/L (≈ 13.8 µM) | MIC [13]: 50 mg/L (≈ 110 µM) | MIC [14]: 1 mg/L (≈ 2.2 µM) | MIC [15]: 0.5 mg/L (≈ 1.1 µM) | MIC [16, 27]: > 100 mg/L | MIC [17]: > 100 mg/L | MIC [18]: > 100 mg/L | MIC [19]: 0.25 mg/L (≈ 0.55 µM)

O=C(Cc1cccs1)N[C@@H]1C(=O)N2C(C(=O)[O-])=C(C[n+]3ccccc3)CS[C@H]12 [cephaloridine]
zone of inhibition at 10000 µg/mL ([20]; Proteus vulgaris, P5, 18 h, read-out: Diameter of inhibitory zone, No addition): 12 mm | zone of inhibition at 240 µg/mL ([20]; Proteus vulgaris, P5, 18 h, read-out: Inhibition zone, Control): 12 mm | Inhibition zone, with cephaloridine [20, 28]: 12.0 mm | Inhibition zone, with penicillin G [20, 29]: 12.0 mm | Diameter of inhibitory zone, Cephaloridine-added ([20]; Table 8, comparison disc 20 μl of 10,000 μg/ml, cephaloridine in the agar): 12.0 mm | MIC ([4]; E9, 20 h): > 100 mg/L | Minimum inhibitory concentration [4, 30]: > 100 mg/L | MIC ([5]; 20 h): 0.01 mg/L (≈ 0.0241 µM) | MIC ([6]; 20 h): 0.04 mg/L (≈ 0.0963 µM) | MIC ([7]; B326, 20 h): 3.13 mg/L (≈ 7.53 µM) | Minimum inhibitory concentration ([7]; Table 9): 3.13 mg/L (≈ 7.53 µM) | Minimum inhibitory concentration ([9]; Table 9, ester dissolved in methanol, final methanol not above 10%): 0.04 mg/L (≈ 0.0963 µM) | Minimum inhibitory concentration [21, 31]: 0.01 mg/L (≈ 0.0241 µM) | MIC [12]: 20 mg/L (≈ 48.1 µM) | Minimum inhibitory concentration [12, 30]: 20.0 mg/L (≈ 48.1 µM) | MIC ([16]; E16, 20 h): > 100 mg/L | Minimum inhibitory concentration [16, 30]: > 100 mg/L | MIC [17]: > 100 mg/L | Minimum inhibitory concentration [17, 30]: > 100 mg/L | MIC [19]: 0.01 mg/L (≈ 0.0241 µM) | Minimum inhibitory concentration [19, 31]: 0.01 mg/L (≈ 0.0241 µM) | Synergistic enhancement of the activity of penicillin G or cephaloridine (β-lactam antibiotics) [22]: no synergistic effect | Synergistic enhancement of the activity of penicillin G or cephaloridine (β-lactam antibiotics) ([22]; listed as Cephaloridine): No enhancement of antimicrobial activity | zone of inhibition at 240 µg/mL ([23]; Citrobacter freundii, E9, 18 h, read-out: Inhibition zone, Control): 12 mm | Inhibition zone, with cephaloridine [23, 28]: 12.0 mm | Inhibition zone, with penicillin G [23, 29]: 12.0 mm | zone of inhibition at 240 µg/mL ([24]; Serratia marcescens, S18, 18 h, read-out: Inhibition zone, Control): 11 mm | Inhibition zone, with cephaloridine [24, 28]: 11.0 mm | Inhibition zone, with penicillin G [24, 29]: 11.0 mm

CO[C@@]1(NC(=O)Cc2cccs2)C(=O)N2C(C(=O)O)=C(COC(N)=O)CS[C@@H]21 [Cefoxitin]
MIC [1]: 2.5 mg/L (≈ 5.85 µM) | MIC [2]: > 100 mg/L | MIC ([4]; E9, 20 h, Table 5, betalactamase producer): > 100 mg/L | MIC [4, 25]: > 100 mg/L | MIC ([5]; 20 h, Table 5, 10% horse blood supplemented into the medium): 2.5 mg/L (≈ 5.85 µM) | MIC ([6]; Table 5, 35° C. 20 hours): 2.5 mg/L (≈ 5.85 µM) | MIC ([7]; B326, Table 5, 35° C. 20 hours): 1.56 mg/L (≈ 3.65 µM) | MIC [7, 26]: 1.56 mg/L (≈ 3.65 µM) | MIC [8]: 50 mg/L (≈ 117 µM) | MIC [9]: 2.5 mg/L (≈ 5.85 µM) | MIC ([21]; Streptococcus pneumoniae, Table 7, no unit in the head, horse serum in the medium at 10%, read-out: Minimum inhibitory concentration): 2.5 mg/L (≈ 5.85 µM) | MIC [11]: 12.5 mg/L (≈ 29.2 µM) | MIC [12]: 6.25 mg/L (≈ 14.6 µM) | MIC [14]: 5 mg/L (≈ 11.7 µM) | MIC [15]: 1.25 mg/L (≈ 2.92 µM) | MIC ([16]; E16, 20 h, Table 5, betalactamase producer): > 100 mg/L | MIC [16, 27]: > 100 mg/L | MIC [19]: 1.25 mg/L (≈ 2.92 µM)
